{"source": "patent US20120040951A1", "about": "“HETEROARYL COMPOUNDS USEFUL AS RAF KINASE INHIBITORS” (priority 2008, published 2012)", "key": {"[1]": {"tested_on": "phospho-ERK in melanoma derived WM-266-4 cells", "experiment": "Mechanistic cellular assay for Raf kinase activity (phospho-ERK, Bio-Plex)", "assay_type": "cell-based", "details": "Homo sapiens, treated 1-2 hr at 37° C., serum free medium, read-out: pERK EC50", "procedure,_shortened": "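WM-266-4 melanoma cells (wild-type/V600D BRaf) grown overnight in 10% FBS RPMI, then treated 1–2 h at 37 °C in serum-free RPMI with eight 3-fold dilutions of compound (from 5 mM DMSO stock, 1000× dilution). Lysate phospho-ERK1,2 quantified by Bio-Plex bead immunoassay.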"}, "V599E Raf": {"biological_target": "V599E Raf (Homo sapiens, UniProt P15056, V600E)", "sequence (P15056 whole entry V600E)": "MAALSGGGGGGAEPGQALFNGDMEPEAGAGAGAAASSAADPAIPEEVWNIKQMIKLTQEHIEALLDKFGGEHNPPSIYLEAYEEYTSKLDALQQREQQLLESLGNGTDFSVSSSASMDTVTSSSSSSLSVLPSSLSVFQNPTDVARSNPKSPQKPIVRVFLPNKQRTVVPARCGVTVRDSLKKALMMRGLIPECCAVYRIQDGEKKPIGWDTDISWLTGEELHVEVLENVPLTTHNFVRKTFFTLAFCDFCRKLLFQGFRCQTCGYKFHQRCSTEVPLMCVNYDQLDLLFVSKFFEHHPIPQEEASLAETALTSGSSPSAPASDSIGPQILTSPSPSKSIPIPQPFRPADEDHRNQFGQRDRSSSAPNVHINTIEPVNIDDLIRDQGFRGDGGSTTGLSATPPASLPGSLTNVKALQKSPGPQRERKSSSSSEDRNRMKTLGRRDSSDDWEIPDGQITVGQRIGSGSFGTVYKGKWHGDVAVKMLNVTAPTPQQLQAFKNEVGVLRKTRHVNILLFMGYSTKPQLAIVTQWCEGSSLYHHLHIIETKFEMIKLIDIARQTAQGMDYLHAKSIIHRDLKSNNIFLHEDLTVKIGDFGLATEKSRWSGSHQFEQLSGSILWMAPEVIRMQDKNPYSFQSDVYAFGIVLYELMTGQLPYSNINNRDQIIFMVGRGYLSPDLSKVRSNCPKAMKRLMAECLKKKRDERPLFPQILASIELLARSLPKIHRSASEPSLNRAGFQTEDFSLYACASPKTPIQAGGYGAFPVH", "experiment": "Biochemical FRET assay, mutant Raf (phosphorylation of MEK)", "details": "0.125 nM V599E Raf, 100 nM biotin-MEK, 25 μM ATP, read-out: Raf (mut) inhibition", "procedure": "(1) Biochemical FRET Assay […]\nInhibitors were diluted 4-fold in 100% DMSO and added to a final concentration of 10 μM to 40 μM to a solution containing 100 nM biotin-MEK, 0.125 nM V599E Raf in 50 mM HEPES, pH 7.4, 60 mM NaCl, 3 mM MgCl2, 2 mM DTT, 0.25 mM MnCl2, 0.01% BSA, and 0.01% Tween-20 and incubated for 20 minutes at room temperature. The kinase reaction was started by the addition of 25 μM ATP to a final volume of 45 μl and allowed to progress for 60 minutes. The reaction was stopped with 15 mM EDTA and 20 nM Streptavidin-APC, 2.5 nM Polyclonal anti p-MEK1/2 (Ser217/221), 2.5 nM Eu-labeled anti-rabbit IgG were added in Lance detection buffer and 5% Superblock in PBS for a final volume of 100 μl. The detection reaction was incubated for 90 minutes at room temperature and then read on an Analyst plate reader using standard TR-FRET (time resolved fluorescence resonance energy transfer) settings for Eu and APC.\nCompounds having an activity designated as “A” provided an IC50≦100 nM; compounds having an activity designated as “B” provided an IC50 of 100-1000 nM; and compounds having an activity designated as “C” provided an IC50 of 1000-10,000 nM."}}}
{"smiles": "CCN1CC(n2cnc3cnc(C(=O)N[C@H](C)c4cnc(Nc5ccc(C(F)(F)F)cc5)cn4)cc32)C1", "note": "(stereo in doubt) [Example 180]", "values": [{"measurement": "EC50", "setting": "[1]", "result": "100 to 1000", "unit": "nM"}, {"measurement": "IC50", "setting": "V599E Raf", "result": "≤ 100", "unit": "nM"}]}
{"smiles": "C[C@@H](NC(=O)c1nc(NC(=O)OC(C)(C)C)cn1C)c1ncc(C(=O)Nc2cc(C(F)(F)F)c(Cl)cn2)s1", "note": "[Example 138]", "values": [{"measurement": "EC50", "setting": "[1]", "result": "1000 to 10000", "unit": "nM"}, {"measurement": "IC50", "setting": "V599E Raf", "result": "100 to 1000", "unit": "nM"}]}
{"smiles": "CCOc1cc(C(F)(F)F)ccc1Nc1ncc(C(C)NC(=O)c2cc3c(cn2)ncn3C)s1", "note": "(stereo not drawn) [Example 283]", "values": [{"measurement": "EC50", "setting": "[1]", "result": "100 to 1000", "unit": "nM"}, {"measurement": "IC50", "setting": "V599E Raf", "result": "≤ 100", "unit": "nM"}]}
{"smiles": "CC(NC(=O)c1cc2c(cn1)ncn2C)c1cnc(Nc2ccc(C(F)(F)F)cc2)s1", "note": "(stereo not drawn) [Example 2]", "values": [{"measurement": "EC50", "setting": "[1]", "result": "≤ 100", "unit": "nM"}, {"measurement": "IC50", "setting": "V599E Raf", "result": "≤ 100", "unit": "nM"}]}
{"smiles": "CC(NC(=O)c1cc2c(cn1)ncn2C)c1cnc(Nc2cc(C(=O)O)cc(C(C)(C)C)c2)s1", "note": "(stereo not drawn) [Example 352]", "values": [{"measurement": "EC50", "setting": "[1]", "result": "1000 to 10000", "unit": "nM"}, {"measurement": "IC50", "setting": "V599E Raf", "result": "100 to 1000", "unit": "nM"}]}
{"smiles": "C[C@@H](NC(=O)c1cnc(N2CCN(C)CC2)s1)c1ncc(C(=O)Nc2cc(C(F)(F)F)c(Cl)cn2)s1", "note": "[Example 106]", "values": [{"measurement": "EC50", "setting": "[1]", "result": "1000 to 10000", "unit": "nM"}, {"measurement": "IC50", "setting": "V599E Raf", "result": "≤ 100", "unit": "nM"}]}
{"smiles": "O=C(Nc1ccc(Cl)c(C(F)(F)F)c1)c1ccc(CNC(=O)c2cnn3ccccc23)cc1", "note": "[Example 231]", "values": [{"measurement": "EC50", "setting": "[1]", "result": "1000 to 10000", "unit": "nM"}, {"measurement": "IC50", "setting": "V599E Raf", "result": "100 to 1000", "unit": "nM"}]}
{"smiles": "Cc1nc(C(C)NC(=O)c2cc3c(cn2)ncn3C)c(C)nc1Nc1ccc(C(F)(F)F)cc1", "note": "(stereo not drawn) [Example 341]", "values": [{"measurement": "EC50", "setting": "[1]", "result": "1000 to 10000", "unit": "nM"}, {"measurement": "IC50", "setting": "V599E Raf", "result": "100 to 1000", "unit": "nM"}]}
{"smiles": "C[C@@H](NC(=O)c1cnn(C)c1CN1CCC(F)(F)C1)c1ncc(C(=O)Nc2cc(C(F)(F)F)c(Cl)cn2)s1", "note": "[Example 130]", "values": [{"measurement": "EC50", "setting": "[1]", "result": "100 to 1000", "unit": "nM"}, {"measurement": "IC50", "setting": "V599E Raf", "result": "100 to 1000", "unit": "nM"}]}
{"smiles": "C[C@H](NC(=O)c1cc2c(cn1)ncn2C)c1cnc(Nc2ccc(C(F)(F)F)cc2)s1", "note": "[Example 3]", "values": [{"measurement": "EC50", "setting": "[1]", "result": "1000 to 10000", "unit": "nM"}, {"measurement": "IC50", "setting": "V599E Raf", "result": "≤ 100", "unit": "nM"}]}
{"smiles": "C[C@@H](NC(=O)c1cc2c(cn1)ncn2C1CN(S(C)(=O)=O)C1)c1cnc(Nc2ccc(C(F)(F)F)cc2)s1", "note": "[Example 346]", "values": [{"measurement": "EC50", "setting": "[1]", "result": "≤ 100", "unit": "nM"}, {"measurement": "IC50", "setting": "V599E Raf", "result": "≤ 100", "unit": "nM"}]}
{"smiles": "CCn1cnc2cnc(C(=O)N[C@H](C)c3cnc(Nc4ccc(C(F)(F)F)cc4)cn3)cc21", "note": "[Example 174]", "values": [{"measurement": "EC50", "setting": "[1]", "result": "≤ 100", "unit": "nM"}, {"measurement": "IC50", "setting": "V599E Raf", "result": "≤ 100", "unit": "nM"}]}
{"smiles": "C[C@@H](NC(=O)c1cc2c(cn1)ncn2[C@@H]1CCNC1)c1cnc(Nc2ccc(C(F)(F)F)cc2)s1", "note": "[Example 26]", "values": [{"measurement": "EC50", "setting": "[1]", "result": "100 to 1000", "unit": "nM"}, {"measurement": "IC50", "setting": "V599E Raf", "result": "≤ 100", "unit": "nM"}]}
{"smiles": "C[C@@H](NC(=O)c1cc2c(cn1)ncn2C)c1ncc(C(=O)Nc2cc(C(F)(F)F)c(Cl)cn2)s1", "note": "[Example 42]", "values": [{"measurement": "EC50", "setting": "[1]", "result": "≤ 100", "unit": "nM"}, {"measurement": "IC50", "setting": "V599E Raf", "result": "≤ 100", "unit": "nM"}]}
{"smiles": "Cc1ncsc1C(=O)N[C@H](C)c1ncc(C(=O)Nc2cc(C(F)(F)F)c(Cl)cn2)s1", "note": "[Example 99]", "values": [{"measurement": "EC50", "setting": "[1]", "result": "1000 to 10000", "unit": "nM"}, {"measurement": "IC50", "setting": "V599E Raf", "result": "≤ 100", "unit": "nM"}]}
{"smiles": "C[C@@H](NC(=O)c1cc2c(cn1)ncn2CCS(C)(=O)=O)c1cnc(Nc2ccc(C(F)(F)F)cc2)s1", "note": "[Example 185]", "values": [{"measurement": "EC50", "setting": "[1]", "result": "100 to 1000", "unit": "nM"}, {"measurement": "IC50", "setting": "V599E Raf", "result": "≤ 100", "unit": "nM"}]}
{"smiles": "Cc1ccc(NC(=O)c2cc([C@@H](C)NC(=O)c3cnn4cccnc34)no2)cc1C(F)(F)F", "note": "[Example 221]", "values": [{"measurement": "EC50", "setting": "[1]", "result": "100 to 1000", "unit": "nM"}, {"measurement": "IC50", "setting": "V599E Raf", "result": "100 to 1000", "unit": "nM"}]}
{"smiles": "C[C@@H](NC(=O)c1cnn2ccccc12)c1cc(C(=O)Nc2ccc(Br)c(C(F)(F)F)c2)on1", "note": "[Example 209]", "values": [{"measurement": "EC50", "setting": "[1]", "result": "≤ 100", "unit": "nM"}, {"measurement": "IC50", "setting": "V599E Raf", "result": "100 to 1000", "unit": "nM"}]}
{"smiles": "Cc1cn(-c2cccc(C(=O)N[C@H](C)c3ncc(C(=O)Nc4cc(C(F)(F)F)c(Cl)cn4)s3)n2)cn1", "note": "[Example 334]", "values": [{"measurement": "EC50", "setting": "[1]", "result": "1000 to 10000", "unit": "nM"}, {"measurement": "IC50", "setting": "V599E Raf", "result": "100 to 1000", "unit": "nM"}]}
{"smiles": "CCc1[nH]ncc1C(=O)N[C@H](C)c1ncc(C(=O)Nc2cc(C(F)(F)F)c(Cl)cn2)s1", "note": "[Example 125]", "values": [{"measurement": "EC50", "setting": "[1]", "result": "100 to 1000", "unit": "nM"}, {"measurement": "IC50", "setting": "V599E Raf", "result": "100 to 1000", "unit": "nM"}]}
{"smiles": "C[C@@H](NC(=O)c1cnn2cc(-c3cccnc3)ccc12)c1cc(C(=O)Nc2cccc(OC(F)(F)F)c2)on1", "note": "[Example 332]", "values": [{"measurement": "EC50", "setting": "[1]", "result": "≤ 100", "unit": "nM"}, {"measurement": "IC50", "setting": "V599E Raf", "result": "100 to 1000", "unit": "nM"}]}
{"smiles": "CC(NC(=O)c1cncc(N)c1)c1ncc(C(=O)Nc2cc(C(F)(F)F)c(Cl)cn2)s1", "note": "(stereo not drawn) [Example 44]", "values": [{"measurement": "EC50", "setting": "[1]", "result": "1000 to 10000", "unit": "nM"}, {"measurement": "IC50", "setting": "V599E Raf", "result": "≤ 100", "unit": "nM"}]}
{"smiles": "C[C@@H](NC(=O)c1cnc2n1CCCN2C)c1ncc(C(=O)Nc2cc(C(F)(F)F)c(Cl)cn2)s1", "note": "[Example 167]", "values": [{"measurement": "EC50", "setting": "[1]", "result": "100 to 1000", "unit": "nM"}, {"measurement": "IC50", "setting": "V599E Raf", "result": "≤ 100", "unit": "nM"}]}
{"smiles": "Cc1nc2cc(C(=O)N[C@H](C)c3ncc(C(=O)Nc4cc(C(F)(F)F)c(Cl)cn4)s3)ccc2n1C", "note": "[Example 68]", "values": [{"measurement": "EC50", "setting": "[1]", "result": "1000 to 10000", "unit": "nM"}, {"measurement": "IC50", "setting": "V599E Raf", "result": "≤ 100", "unit": "nM"}]}
{"smiles": "C[C@@H](NC(=O)c1cc2c(cn1)ncn2C1CNC1)c1cnc(Nc2ccc(C(F)(F)F)cc2)s1", "note": "[Example 27]", "values": [{"measurement": "EC50", "setting": "[1]", "result": "100 to 1000", "unit": "nM"}, {"measurement": "IC50", "setting": "V599E Raf", "result": "≤ 100", "unit": "nM"}]}
{"smiles": "CC(NC(=O)c1cc2c(cn1)ncn2C)c1cnc(Nc2cc(C(N)=O)cc(C(C)(C)C)c2)s1", "note": "(stereo not drawn) [Example 353]", "values": [{"measurement": "EC50", "setting": "[1]", "result": "1000 to 10000", "unit": "nM"}, {"measurement": "IC50", "setting": "V599E Raf", "result": "≤ 100", "unit": "nM"}]}
{"smiles": "C[C@@H](NC(=O)c1cnn(C)c1N)c1ncc(C(=O)Nc2cc(C(F)(F)F)c(Cl)cn2)s1", "note": "[Example 127]", "values": [{"measurement": "EC50", "setting": "[1]", "result": "≤ 100", "unit": "nM"}, {"measurement": "IC50", "setting": "V599E Raf", "result": "≤ 100", "unit": "nM"}]}
